Where two headings read alike, the source gives them in different places.
Experiments:
[1] = cited from earlier work; for MRL/EU: maximum residue level, European Union
[2] = target: T1, β-lactame receptor (RSA) (Staphylococcus aureus, UniProt P18357); format: binding; conditions: milk; for Detection limit: Concentration: β-lactames, positive when ratio test/control <= 1; for Intensity ratio of parameter/control zone: at the detection limit concentration
T1 construct: made in house
T1 sequence (P18357 331-585 limits assumed): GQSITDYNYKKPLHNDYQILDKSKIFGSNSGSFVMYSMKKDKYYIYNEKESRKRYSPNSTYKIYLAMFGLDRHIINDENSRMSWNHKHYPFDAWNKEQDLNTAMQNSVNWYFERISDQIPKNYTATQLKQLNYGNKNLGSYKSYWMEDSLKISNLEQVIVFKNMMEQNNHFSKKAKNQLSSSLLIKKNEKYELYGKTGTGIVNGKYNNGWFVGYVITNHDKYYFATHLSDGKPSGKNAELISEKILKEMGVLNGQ
Excerpt: (§1) For the detection of β-lactames, the reactive mixture comprises the specific receptor for recognising β-lactames, its specific antibody and a preparation of protein A conjugated with colloidal gold. For the detection of tetracyclines, the reactive mixture comprises the receptor of the tetracyclines, its specific antibody, a specific fragment of DNA conjugated with biotin and a preparation of protein A conjugated with colloidal gold.
(§2) The β-lactame receptor is obtained by the method described by Golemi-Kotra et al.^(6) The unpurified receptor is filtered on a Millex HV membrane (Millipore, Inc., USA) before it is stored at 4° C. in the presence of glycerol at 50% v/v.
(§3) This mixture is either prepared as required or lyophilisated for 20 hours. The Recovery System
(§4) The recovery system comprises a nitrocellulose membrane on which are fixed, at distinct points, the elements capable of forming a complex with the recognition molecules of the reactive mixture. These elements are: • for the “beta” signal (for β-lactame), an antibiotic, preferably of penicillin or cephalosporine type, fixed to a molecule with no particular reactivity to protein A, biotin or avidine. […] An egg-white avidine is preferably used.
(§5) In the case of a detection of two parameters, the preparations of β-lactoglobulin and avidine will be deposited on each side of the control line. For example, the β-lactoglobulin conjugate already prepared will be deposited below the control line and the neutralized avidine solution will be deposited above the control line (FIG. 1).
(§6) 200 μL of cold milk are incubated at 50° C. in the presence of 50 μl of the reagents prepared and/or lyophilisated as above. After 3 minutes of incubation at 50° C., the above-described recovery element is immersed in the solution. The final interpretation is made after 3 minutes of incubation by means of an optical dipstick reader available at Matest (Germany);
(§7) As a general rule, when the ratio of the intensities of the concerned test signal relative to the control signal is less than or equal to 1, the sample is considered positive for the parameter (compound) concerned.

[3] = tested on: tetracycline receptor (TetR); test: Example 1 dipstick test in milk, "tetra" capture zone (format 1); format: binding, E. Coli
Excerpt: In addition, the recovery system is a specific and biotinylated fragment of DNA that can be fixed on a molecule of avidine attached to a nitrocellulose membrane. […] In this case, the fragment of DNA forms a complex with the receptor and a signal generated by the gold particles attached to the receptor appears.
as §1, §2
The DNA fragment is obtained at Eurogentec SA, Belgium according to the sequence and preparation described in patent application WO-A-03/048770. In this precise case, the DNA fragment is not fixed to a capture point on a nitrocellulose membrane but it is directly incorporated into the reactive mixture. This fragment will be recovered in testo by means of its biotinylated end on avidine fixed to a capture point (see below).
as §3, §4, §5, §6, §7

[4] = target: T1, β-lactame receptor (RSA); format: binding; conditions: milk; for Concentration detection limit: β-lactames, three-parameter test; for Ratio test/control: at the detection limit concentration
Method: This mixture is prepared either as required or lyophilisated for 20 hours. The Recovery System
The other capture zones are identical but differently positioned, as in FIG. 2.
A single control zone serves as a reference for the three markers.
as §6, with “(Germany).” for “(Germany);”
As a general rule, if the ratio of the intensities of the concerned test signal relative to the control signal is less than or equal to 1, the sample is considered as positive for the parameter (compound) concerned.

## CN(C)[C@@H]1C(O)=C(C(N)=O)C(=O)[C@@]2(O)C(O)=C3C(=O)c4c(O)cccc4[C@@](C)(O)[C@H]3C[C@@H]12 [Tetracycline]
[1]
  Safe level/US: 300 ppb
  MRL/EU: 100 ppb

## C[C@H]1c2cccc(O)c2C(=O)C2=C(O)[C@]3(O)C(=O)C(C(N)=O)=C(O)[C@@H](N(C)C)[C@@H]3[C@@H](O)[C@@H]21 [Doxycycline]
[1]
  Safe level/US: 300 ppb
  MRL/EU: 100 ppb

## CN(C)[C@@H]1C(O)=C(C(N)=O)C(=O)[C@@]2(O)C(O)=C3C(=O)c4c(O)cccc4[C@@](C)(O)[C@H]3[C@H](O)[C@@H]12 [Oxytetracycline]
[1]
  Safe level/US: 300 ppb
  MRL/EU: 100 ppb

## CC1(C)S[C@@H]2[C@H](NC(=O)[C@H](N)c3ccccc3)C(=O)N2[C@H]1C(=O)O [Ampicillin]
[2]; Ampi 1 ppb
  Intensity: zone B: 380
[2]; Ampi 2 ppb
  Intensity: zone B: 250
[2]; Ampi 3 ppb
  Intensity: zone B: 155
[2]; Ampi 4 ppb + Tetra 75 ppb together
  Intensity: zone B: 122
[2]; Ampi 4 ppb
  Intensity: zone B: 105
[2]; Ampi 5 ppb
  Intensity: zone B: 55
[2]; Ampi 10 ppb
  Intensity: zone B: 25
[2]
  Detection limit: Concentration: 4 ppb
[3]; Ampi 1 ppb
  Intensity: zone T: 380
[3]; Ampi 2 ppb
  Intensity: zone T: 405
[3]; Ampi 3 ppb
  Intensity: zone T: 408
[3]; Ampi 4 ppb
  Intensity: zone T: 386
[3]; Ampi 5 ppb
  Intensity: zone T: 397
[3]; Ampi 10 ppb
  Intensity: zone T: 414
[4]
  Concentration detection limit: 4 ppb

## CC1(C)S[C@@H]2[C@H](NC(=O)Cc3ccccc3)C(=O)N2[C@H]1C(=O)O [Benzylpenicillin]
[2]
  Detection limit: Concentration: 2 ppb
[4]
  Concentration detection limit: 2 ppb

## CC(=O)OCC1=C(C(=O)O)N2C(=O)[C@@H](NC(=O)CSc3ccncc3)[C@H]2SC1 [Cephapyrin]
[2]
  Intensity ratio of parameter/control zone: 0.3
  Detection limit: Concentration: 8 ppb
[4]
  Ratio test/control: 0.3
  Concentration detection limit: 8 ppb
[1]
  Safe level/US: 20 ppb
  MRL/EU: 60 ppb

## CN(C)[C@@H]1C(O)=C(C(N)=O)C(=O)[C@@]2(O)C(O)=C3C(=O)c4c(O)ccc(Cl)c4[C@@](C)(O)[C@H]3C[C@@H]12 [Chlortetracycline]
[1]
  Safe level/US: 300 ppb
  MRL/EU: 100 ppb

## CC1(C)S[C@@H]2[C@H](NC(=O)[C@H](N)c3ccc(O)cc3)C(=O)N2[C@H]1C(=O)O [Amoxicillin]
[2]
  Intensity ratio of parameter/control zone: 0.4
  Detection limit: Concentration: 4 ppb
[4]
  Ratio test/control: 0.4
  Concentration detection limit: 4 ppb
[1]
  Safe level/US: 10 ppb
  MRL/EU: 4 ppb

## Cloxacycline
[2]
  Intensity ratio of parameter/control zone: 0.5
  Detection limit: Concentration: 10 ppb
[4]
  Ratio test/control: 0.5
  Concentration detection limit: 10 ppb
[1]
  Safe level/US: 10 ppb
  MRL/EU: 30 ppb

## CO/N=C(\C(=O)N[C@@H]1C(=O)N2C(C(=O)O)=C(CSC(=O)c3ccco3)CS[C@H]12)c1csc(N)n1 [Ceftiofur]
[2]
  Intensity ratio of parameter/control zone: 0.5
  Detection limit: Concentration: 10 ppb
[4]
  Ratio test/control: 0.5
  Concentration detection limit: 10 ppb
[1]
  Safe level/US: 50 ppb
  MRL/EU: 100 ppb
